Columns and labels:
CEM/Cl = assay: MTT assay of cell viability, CEM/Cl; type: cell-based; details: 5 days at 37 C
Protocol: (§1) The in vitro cytotoxicities of thioaminal prodrugs of Cordycepin were compared to the parent drug Cordycepin using a standard MTT assay of cell viability (Hansen et al. (1989) J. Immunol. Meth. 119:203-10). Leukemia cell lines growing in the exponential phase (MOLT, […], and CEM/Cl) were plated at a final concentration of 1×10^5 cells/ml and exposed to serial dilutions of the Cordycepin prodrugs. In a subset of the experiments (denoted by “+”), the cells were preincubated with 1 μM of the ADA inhibitor 2′-deoxycoformycin for 30 minutes prior to addition of prodrug. Cell viability was determined after incubation for 5 days at 37 C by addition of 3-(4,5-dimethylthizaol-2-yl)-2,5-diplenyl-tetrazolium dye. IC50 was defined as the drug concentration that reduced cell viability 50% in comparison with the appropriate control.

[1] = HPLC stability analysis: hydrolysis of the prodrug to Cordycepin in phosphate buffer; type: physicochemical; details: 0.63 mM in 30 mM phosphate buffer (pH 7.3) containing 5% DMSO, 37 C; for half-life at 0.63 mM: read-out: t½ (time point at which half of the Cordycepin prodrug was hydrolysed to Cordycepin) (converted)
Protocol: To analyze the half-life of thioaminal prodrugs, HPLC stability analysis was performed on the following Cordycepin prodrugs. Solutions (0.63 mM) of each of the following compounds was prepared in 30 mM phosphate buffer (pH 7.3) containing 5% DMSO and incubated at 37 C.

[2] = test system: Leukemia cell lines (MOLT, HL-69, and CEM/Cl); assay: MTT assay of cell viability, overall comparison with Cordycepin; type: cell-based; details: both in the presence and absence of ADA inhibitor
Protocol: as §1

[3] = test system: Leukemia cell lines (MOLT, and CEM/Cl); assay: as above; type: cell-based; details: absence vs presence of ADA inhibitor 2′-deoxycoformycin
Protocol: as §1

HL-60 = assay: MTT assay of cell viability, HL-60; type: cell-based; details: 5 days at 37 C
Protocol: as §1

MOLT = assay: MTT assay of cell viability, MOLT; type: cell-based; details: 5 days at 37 C
Protocol: as §1

[4] = + (preincubated with 1 μM 2′-deoxycoformycin for 30 minutes)
[5] = HL-60, + (preincubated with 1 μM 2′-deoxycoformycin for 30 minutes)
[6] = Homo sapiens, 120 h, HL-60, − (no ADA inhibitor)

Row | IC50 (HL-60; [5]) | IC50 (HL-60; [6]) | IC50 (MOLT; 120 h, − (no ADA inhibitor)) | IC50 (MOLT; [4]) | half-life at 0.63 mM [1] | Compound | IC50 (CEM/Cl; [4]) | IC50 (CEM/Cl; − (no ADA inhibitor)) | t½ (time point at which half of the Cordycepin prodrug was hydrolysed to Cordycepin) [1] | IC50 (CEM/Cl; 120 h, − (no ADA inhibitor)) | cytotoxic potency compared to Cordycepin [2] | attenuation of activity in the absence of ADA inhibitor [3]
1 |  |  |  |  | 17 h | COc1ccc(SCNc2ncnc3c2ncn3[C@@H]2O[C@H](CO)C[C@H]2O)cc1 [5b, 6-N-(4-methoxybenzothio)methyl-Cordycepin] | 3 µM |  |  | 15 µM | more potent cytotoxic agents than Cordycepin | 
2 | 9 µM | 42 µM | 80 µM | 21 µM |  | Nc1ncnc2c1ncn2[C@@H]1O[C@H](CO)C[C@H]1O [Cordycepin, 3′-deoxyadenosine, reference compound] | 2 µM |  |  | 27 µM |  | 

Continued, compound first:

Row | Compound | IC50 (HL-60; [5]) | IC50 (HL-60; [6]) | IC50 (MOLT; 120 h, − (no ADA inhibitor)) | IC50 (MOLT; [4]) | half-life at 0.63 mM [1] | IC50 (CEM/Cl; [4]) | IC50 (CEM/Cl; − (no ADA inhibitor)) | t½ (time point at which half of the Cordycepin prodrug was hydrolysed to Cordycepin) [1] | IC50 (CEM/Cl; 120 h, − (no ADA inhibitor)) | cytotoxic potency compared to Cordycepin [2] | attenuation of activity in the absence of ADA inhibitor [3]
3 | 6-N-(4-N-acetylbenzylthio)methyl-Cordycepin [8b] |  |  |  |  |  | 3 µM | 15 µM |  |  |  | 
4 | CCSCNc1ncnc2c1ncn2[C@@H]1O[C@H](CO)C[C@H]1O [1b, 6-N-(Ethanethio)methyl-Cordycepin] |  |  |  |  |  |  |  | >72 h |  |  | 
5 | OCCSCNc1ncnc2c1ncn2[C@@H]1O[C@H](CO)C[C@H]1O [2b, 6-N-(2-hydroxyethanethio)methyl-Cordycepin] |  |  |  |  |  |  |  | >72 h |  |  | 
6 | OC[C@@H]1C[C@@H](O)[C@H](n2cnc3c(NCSc4ccccc4)ncnc32)O1 [3b, 6-N-(phenylthiol)methyl-Cordycepin] | 7 µM | 24 µM | 18 µM | 16 µM | 15 h | 2 µM |  |  | 5.5 µM | more potent cytotoxic agents than Cordycepin | not significantly attenuated
7 | Cc1ccc(SCNc2ncnc3c2ncn3[C@@H]2O[C@H](CO)C[C@H]2O)cc1 [4b] | 17 µM | 50 µM | 35 µM | 30 µM |  | 5 µM |  |  | 24 µM | more potent cytotoxic agents than Cordycepin | 
8 | O=[N+]([O-])c1ccc(CSCNc2ncnc3c2ncn3[C@@H]2O[C@H](CO)C[C@H]2O)cc1 [7b, 6-N-(4-nitrobenzylthio)methyl-Cordycepin] |  |  |  |  |  |  |  | 1 h |  |  | 
